Assay results as given in patent publication EP0315097A2, “Acyl labdane derivatives, process for their preparation and their use as medicines” (HOECHST AKTIENGESELLSCHAFT, priority 1987, dated 1989).
In brackets after ≈: the same amount, converted by molar mass.

Legend:
wachen Kaninchen = assay: Intraocular pressure (IOD) measurement in the conscious rabbit, Schioetz tonometer; type: in vivo; conditions: Dosis Prozent 2 (2 %ige Lösung, 100 µl instilled into one eye); for IOD-senkende Wirkung % Abnahme des IOD: decrease calculated from the baseline value; for IOD-senkende Wirkung Dauer: duration of the IOD-lowering effect
Text: Für diesen Versuch werden 2 bis 3 kg schwere Kaninchen beider Geschlechter verwendet. Der intraokulare Druck (IOD) wird mit einem Schioetz-Tonometer nach Hornhaut-Anästhesie mit 2 %iger Novocainlösung gemessen. Zur Herstellung einer 2 %igen Lösung wird eine erfindungsgemäße Verbindung unter Verwendung der stöchiometrischen Menge 0,1 n-HCI, bzw. deren Salz direkt in Wasser gelöst. Nach Ermittlung des Ausgangswertes werden 100 u.l der Lösung der Testverbindung in eines der Augen, das Vehikel in das andere Auge instilliert. Der IOD wird in bestimmten Zeitabständen, d.h. 0,5; 1, 2, 3, 4 und 5 Stunden gemessen. Die prozentuale Abnahme des IOD wird anhand des Ausgangswertes berechnet.
(§1) Die bei diesem Modell für repräsentative erfindungsgemäße Verbindungen erhaltenen Ergebnisse sind in der nachfolgenden Tabelle aufgeführt: […]

Katze = assay: Blood pressure lowering in the anaesthetised cat, femoral artery pressure; type: in vivo; conditions: for Abfall d. BD: Chloralose-Narkose; for Dauer: duration of the blood pressure lowering effect
Text: 3 bis 4 kg schwere Katzen beider Geschlechter werden mit Äther anästhesiert und unter Chloralose-Narkose (70 mgkg i.v.) gehalten. Sowohl die Oberschenkel-Arterie als auch die -Vene werden zur Aufzeichnung des Blutdrucks bzw. zur Verabreichung der Arzneimittel mit Kanülen versehen. Der Blutdruck in der Oberschenkelarterie wird über einen Druckaufnehmer Statham P 23 Db auf einem Nihon-Kohden-Schreiber für physiologische Zwecke ausgezeichnet. Die zu prüfende Verbindung wird in destilliertem Wasser gelöst und intravenös verabreicht. Der Blutdruckabfall und die Dauer der blutdrucksenkenden Wirkung werden notiert.
as §1

Meerschweinchenvorhof = assay: Positive inotropic activity, contraction force of isolated electrically stimulated guinea pig atrium; parameters: species or system Meerschweinchen; conditions: isolated left and right atria, Ringer-Lösung, 32 C, contraction force recorded 7 bis 10 Minuten
Text: Dafür wurde folgende Methode angewandt.
400 g schwere Meerschweinchen beider Geschlechter werden getötet, das Herz entnommen und bei Raumtemperatur in Ringer-Lösung eingebracht. Sowohl der linke als auch der rechte Vorhof werden dann isoliert, an einem Organhalter befestigt und in eine Ringer-Lösung enthaltendes, bei einer Temperatur von 32 C gehaltenes Bad eingebracht. In das Organbad läßt man ein Gemisch von 95 % O2 und 5 % C02 einperlen. Dann stimuliert man den Vorhof elektrisch. Die zu prüfende erfindungsgemäße Verbindung wird in Wasser zu einer Lösung bekannter Konzentration gelöst und dem Bad zugesetzt. Die Kontraktionskraft des Vorhofs wird 7 bis 10 Minuten lang über einen isometrischen Dehnungsmeßstreifen auf einem 4-Kanal-Schreiber von Nihon Kohden registriert. Die Aktivität wird gemäß den erhaltenen Daten als ECso ausgedrückt.
Die bei diesem Modell für repräsentative erfindungsgemäße Verbindungen erhaltenen Ergebnisse sind in der nachfolgenden Tabelle aufgeführt.

Q: How did the “IOD-senkende Wirkung % Abnahme des IOD” value (wachen Kaninchen) turn out when `C=C[C@@]1(C)CC(=O)[C@]2(O)[C@@]3(C)[C@@H](O)CCC(C)(C)[C@@H]3[C@H](OC(=O)CN3CCCCC3)[C@H](OC(=O)N(CC)CC)[C@@]2(C)O1` [R6=[drawing], R7=CON(C2H5)2 (the 4th table, row 5)] was run?
A: 20%

Q: What about the “IOD-senkende Wirkung Dauer” value (wachen Kaninchen) of the same compound?
A: 420 min

Q: Which results are given for `C=C[C@@]1(C)CC(=O)[C@]2(O)[C@@]3(C)[C@@H](O)CCC(C)(C)[C@@H]3[C@H](OC(=O)CN3CCCCC3)[C@H](OC(=O)N(CC)CC)[C@@]2(C)O1` [R6=[drawing], R7=CON(C2H5)2 (the 5th table, row 5)]?
A: Abfall d. BD (Katze; Dosis 1 mg/kg intravenös): 50; Dauer (Katze; Dosis 1 mg/kg intravenös): 20 min

Q: Which EC50 (Meerschweinchenvorhof) does the source give for `C=C[C@@]1(C)CC(=O)[C@]2(O)[C@@]3(C)[C@@H](O)CCC(C)(C)[C@@H]3[C@H](OC(=O)CCN3CCCCC3)[C@H](OC(=O)N(CC)CC)[C@@]2(C)O1` [R6=CO(CH2)2N[drawing], R7=CON(C2H5)2] here?
A: 0.79 µg/mL (≈ 1.3 µM)

Q: For `C=C[C@@]1(C)CC(=O)[C@]2(O)[C@@]3(C)[C@@H](O)CCC(C)(C)[C@@H]3[C@H](OC(=O)CCN3CCCCC3)[C@H](OC(=O)OCC)[C@@]2(C)O1` [R6=[drawing], R7=COOC2H5 (the 5th table, row 2)], which “Abfall d. BD” value (Katze; Dosis 1 mg/kg intravenös) is on record?
A: 40

Q: And the Dauer (Katze; Dosis 1 mg/kg intravenös)?
A: >20 min

Q: Which results are given for `C=C[C@@]1(C)CC(=O)[C@]2(O)[C@@]3(C)[C@@H](O)CCC(C)(C)[C@@H]3[C@H](OC(=O)CCN3CCCCC3)[C@H](OC(=O)N(CC)CC)[C@@]2(C)O1` [R6=[drawing], R7=CON(C2H5)2 (the 5th table, row 3)]?
A: Abfall d. BD (Katze; Dosis 1 mg/kg intravenös): 20; Dauer (Katze; Dosis 1 mg/kg intravenös): 60 min

Q: Which results are given for `C=C[C@@]1(C)CC(=O)[C@]2(O)[C@@]3(C)[C@@H](O)CCC(C)(C)[C@@H]3[C@H](OC(=O)CCN3CCCCC3)[C@H](OC(=O)OCC)[C@@]2(C)O1` [R6=[drawing], R7=COOC2H5 (the 4th table, row 2)]?
A: IOD-senkende Wirkung % Abnahme des IOD (wachen Kaninchen): 20%; IOD-senkende Wirkung Dauer (wachen Kaninchen): 300 min

Q: With `C=C[C@@]1(C)CC(=O)[C@]2(O)[C@@]3(C)[C@@H](O)CCC(C)(C)[C@@H]3[C@H](OC(=O)CN3CCCCC3)[C@H](OC(=O)OCC)[C@@]2(C)O1` [R6=COCH2N[drawing], R7=COOC2H5] as the compound, how does the EC50 (Meerschweinchenvorhof) read?
A: 1.6 µg/mL (≈ 2.83 µM)

Q: How did the “Abfall d. BD” value (Katze; Dosis 3 mg/kg intravenös) turn out when `C=C[C@@]1(C)CC(=O)[C@]2(O)[C@@]3(C)[C@@H](O)CCC(C)(C)[C@@H]3[C@H](OC(=O)CN3CCCCC3)[C@H](OC(=O)OCC)[C@@]2(C)O1` [R6=[drawing], R7=COOC2H5 (the 5th table, row 4)] was run?
A: 60

Q: What about the Dauer (Katze; Dosis 3 mg/kg intravenös) of the same compound?
A: 60 min

Q: Which “IOD-senkende Wirkung % Abnahme des IOD” value (wachen Kaninchen) does the source give for `C=C[C@@]1(C)CC(=O)[C@]2(O)[C@@]3(C)[C@@H](O)CCC(C)(C)[C@@H]3[C@H](OC(=O)CCN3CCCCC3)[C@H](OC(=O)N(CC)CC)[C@@]2(C)O1` [R6=[drawing], R7=CON(C2H5)2 (the 4th table, row 3)] here?
A: 25%

Q: What about the “IOD-senkende Wirkung Dauer” value (wachen Kaninchen) of the same compound?
A: 360 min

Q: With `C=C[C@@]1(C)CC(=O)[C@]2(O)[C@@]3(C)[C@@H](O)CCC(C)(C)[C@@H]3[C@H](OC(=O)CN3CCCCC3)[C@H](OC(=O)N(CC)CC)[C@@]2(C)O1` [R6=COCH2N[drawing], R7=CON(C2H5)2] as the compound, how does the EC50 (Meerschweinchenvorhof) read?
A: 0.44 µg/mL (≈ 0.742 µM)

Q: Which “IOD-senkende Wirkung % Abnahme des IOD” value (wachen Kaninchen) does the source give for `C=C[C@@]1(C)CC(=O)[C@]2(O)[C@@]3(C)[C@@H](O)CCC(C)(C)[C@@H]3[C@H](OC(=O)CN3CCCCC3)[C@H](OC(=O)OCC)[C@@]2(C)O1` [R6=[drawing], R7=COOC2H5 (the 4th table, row 4)] here?
A: 0%
